Results on two compounds are retold here after patent US9636377B2, “Compositions and methods for the treatment of retinal degeneration” (UNIVERSITE DE STRASBOURG, priority 2012, dated 2017).

For data set [1], the system named is Bip, Chop10 and Caspase12 mRNA. Description: mRNA expression of ER stress genes in retinal explants (quantitative PCR). The data set is classed as cell-based, mouse. Here is the method:
(§1) Wild-type animals were on a C57BL/6 background. The retinal explant culture procedure was carried out as previously described (Reidel et al., 2006). Briefly, 15-day-old mice were sacrificed by decapitation and eyes were removed and incubated in trypsin (catalog #25200-072, Gibco, Invitrogen, Paris, France) for 10 min at 37° C. Digestion was stopped by transferring eyes in DMEM+10% fetal bovine serum (catalog #31885-023 and 10500-064, Gibco) and incubation for 10 min at 4° C. Eyes were dissected in Ame's medium (catalog#15230-097, Gibco) supplemented with 6.5 g/L glucose. First, the sclera was carefully removed, leaving the retinal pigmented epithelium (RPE) attached to the eyeball. Incisions were made at the edge of the cornea to remove the cornea, lens and hyaloid body. Then four radial incisions were made in the retina to obtain a cross shape. Retinas were transferred on a nitrocellulose culture membrane (catalog # PICMORG50, Millipore, Molsheim, France) with RPE side down and cultivated in Neurobasal A medium (catalog #108888-022, Gibco) supplemented with B27 supplement (catalog #17504-044, Gibco), L-glutamine (catalog #35050-061, Gibco) and penicillin/streptomycin (catalog #15240; Gibco). Explants were maintained at 37° C. humidified 5% CO2. Specific gene silencing using lentiviruses carrying shRNA sequences for Bbs12, Perk, Hri or Rhodopsin (Santa Cruz Biotechnology, Tebu Bio, Yvelines, France) were performed by adding 20 μl of viral suspension (1×10^5 infectious units) in the culture medium overnight before whole medium change. The infected explants were then cultured for 3 days with a half medium change on a daily basis. Explants were not maintained longer in culture to avoid unspecific apoptosis in the different retinal layers. […] Drugs were added simultaneously with viral infection to the culture medium.
Total RNA was extracted with Trizol (catalog #15596-018, Invitrogen). […] was DNAse treated using TURBO DNA-free Kit (catalog # AM1907, Applied Biosystems, Villebon-sur-Yvette, France) and then reverse transcribed using the iScript cDNA synthesis kit (catalog #170-8891, BioRad, Marne-la-coquette, France). Primers (listed in supplementary methods) were purchased from Qiagen, Courtaboeuf, France. Quantitative PCR were performed using SYBR Green PCR Mix (catalog #4367659, Applied Biosystems) on a BioRad CFX96 system. mRNA expressions were expressed as relative to Gapdh RNA content, using BioRad CFX manager software. For endoplasmic reticulum stress arrays, Custom TaqMan Array 96 was purchased for Applied Biosystems; all tested genes are listed in supplementary methods.

The test system of the next data set is peIF2α, CHOP10 and BiP. Briefly: Western blot of UPR proteins in retinal explants. As to conditions: shRNA-treated retinal explants. Type of data set: cell-based, mouse. Here is the method:
as §1
Proteins were obtained by lysis in RIPA buffer (150 mM NaCl, 50 mM TrisHCl pH 8, 0.1% Tween20, catalog # P7653, T3253, 93773, Sigma-Aldrich) supplemented with Protease Inhibitors Complete Mini EDTA-free (catalog #11836 170001, Roche, Boullogne-Billancourt, France), 1 mM NaVO4 and 25 mM NaF (catalog # S6508 and S7920, Sigma-Aldrich). After retina dissociation using dounce homogenizer, samples were sonicated and protein concentration was determined using Bradford reagent (catalog #500-0006, BioRad). For Western blotting, 80 μg of whole protein extracts were loaded per lane and Ponceau S staining was used as loading control for signal quantification. Antibody binding was visualized using SuperSignal West Femto Maximum Sensitivity Substrate (catalog #34095, ThermoFisher) on a Versadoc apparitus, BioRad. Signal quantification was assed using QuantityOne software from BioRad.

Another data set relates to Bbs12−/− mouse retina. Description: Scotopic electroretinogram of treated Bbs12−/− mice. The data set is classed as in vivo. As to conditions: 4 weeks of age; for scotopic ERG recording: systemic VPA 5 mg/mL, systemic GBZ 50 μM, or GIV (eye drops GBZ 7.5 μM + INH 500 μM, systemic VPA). As for the experimental part:
The Bbs12^−/− mice were generated as previously described. Bbs12^−/− mice were obtained by crossing heterozygote animals. Mice were housed in humidity and temperature controlled rooms on a 12-hour light/12-hour dark cycle with food ad libitum and water. For anti-apoptotic treatments, animals were treated with eye drops from 2 to 4 weeks of age once a day; the eye drops contain GBZ 7.5 μM and Caspase Inhibitor 500 μM for the left eye and contain 5% DMSO for the right eye. […] Eye drop treatment was achieved from 2 to 4 weeks of age and systemic treatments were achieved from 3 to 4 weeks of age. At 4 weeks of age, electrophysiological analyses were performed and the retinas were harvested for molecular analysis.
Mice were dark adapted for 12 hours before recording. Those experiments were performed under dim red light. The mice were anesthetized with the same anesthesia mix described in the section above. The pupils were dilated with eye drops of atropine 0.3% (catalog # Atropine Alcon 0.3%, Alcon, Rueil-Malmaison, France). Animals were placed on a controlled heating pad and maintained at 37° C. during the procedure. The reference electrode was placed under the head skin and the background electrode was inserted in the tail of the animal. The measuring electrode was placed on the cornea, to optimize contact between the cornea and the gold electrode, and a drop of methylcellulose gel (catalog # Ocry-gel, TVM Laboratories, Lempdes, France) was added. Flashes were delivered though a Ganzfeld equipped with light-emitting diodes with maximum output of 318 cd/m^2 (Siem Biomédicale, Nimes, France). For the scotopic ERG, the flash duration varied from 3 to 5 ms with final flash output ranging from 0.001 to 1 cd*s/m^2. Responses were amplified, filtered (1-300-Hz band pass), and digitized (Visiosystem; Siem Biomédicale). The a and b waves were measured by using a 1-75-Hz band pass to filter oscillatory potentials.

The next data set deals with rat retina. As to conditions: ischemia-reperfusion injury, systemic administration; cited from earlier work.
In the next data set the test system is RP patients. As to conditions: RP patients treated for 2 or 4 months; cited from earlier work.
[2] abbreviates: control conditions (shCtl explants).

Regarding `N=C(N)N/N=C/c1c(Cl)cccc1Cl` [GBZ, guanabenz], in data set [1] (after Bbs12 depletion), the “Bip mRNA expression” value is reported as “decreased”, the “Caspase12 mRNA expression” value is listed as “decreased” and the “Chop10 mRNA expression” value was “decreased”. Also, in the data set with peIF2α, CHOP10 and BiP, the CHOP10 protein content entry is reported as “increase” and the “eIF2α phosphorylation (peIF2α), protein level” value is listed as “maintained in a phosphorylated status”. In addition, in the data set on Bbs12−/− mouse retina, the “a wave amplitude, scotopic ERG” value is reported as “significantly increased”; the “b wave amplitude, scotopic ERG” value is on record as “significantly increased”; the “scotopic ERG recording” value is “clear amelioration”.
As for `CCCC(CCC)C(=O)O` [VPA, valproic acid], in data set [1] (after Bbs12 depletion), the “Bip mRNA expression” value is on record as “lower”, the “Caspase12 mRNA expression” value is “lower” and the “Chop10 mRNA expression” value is given as “lower”. Further, in data set [1] (setting [2]), the “Bip mRNA expression” value is “twofold increase”, the “Caspase12 mRNA expression” value was “not significantly changed” and the “Chop10 mRNA expression” value is given as “not significantly changed”. Further, in the data set with peIF2α, CHOP10 and BiP, the BiP protein content result is on record as “increased”; the CHOP10 protein content entry is listed as “decreased”; the “eIF2α phosphorylation (peIF2α), protein level” value is listed as “decreased”. For the same compound, in the data set on Bbs12−/− mouse retina, the “a wave amplitude, scotopic ERG” value was “significantly increased”; the “b wave amplitude, scotopic ERG” value is “higher”; the “scotopic ERG recording” value was “clear amelioration”. Further, in the data set on rat retina, the BiP expression result is recorded as “increased” and the caspase-12 activation result is listed as “reduced”. In addition, the visual field result in the data set with RP patients is given as “increase of visual field in 5 to 7 patients”.
